For one assay, the target named is Human VPS34 (Homo sapiens (Human), UniProt Q8NEB9). In words: Human VPS34 enzyme assay (Adapta TR-FRET). The class given is biochemical. The conditions noted are these: IC50 range class. (In general: In TR-FRET formats the signal depends on donor and acceptor labels being close together.)
Sequence of Human VPS34 (Q8NEB9 whole entry): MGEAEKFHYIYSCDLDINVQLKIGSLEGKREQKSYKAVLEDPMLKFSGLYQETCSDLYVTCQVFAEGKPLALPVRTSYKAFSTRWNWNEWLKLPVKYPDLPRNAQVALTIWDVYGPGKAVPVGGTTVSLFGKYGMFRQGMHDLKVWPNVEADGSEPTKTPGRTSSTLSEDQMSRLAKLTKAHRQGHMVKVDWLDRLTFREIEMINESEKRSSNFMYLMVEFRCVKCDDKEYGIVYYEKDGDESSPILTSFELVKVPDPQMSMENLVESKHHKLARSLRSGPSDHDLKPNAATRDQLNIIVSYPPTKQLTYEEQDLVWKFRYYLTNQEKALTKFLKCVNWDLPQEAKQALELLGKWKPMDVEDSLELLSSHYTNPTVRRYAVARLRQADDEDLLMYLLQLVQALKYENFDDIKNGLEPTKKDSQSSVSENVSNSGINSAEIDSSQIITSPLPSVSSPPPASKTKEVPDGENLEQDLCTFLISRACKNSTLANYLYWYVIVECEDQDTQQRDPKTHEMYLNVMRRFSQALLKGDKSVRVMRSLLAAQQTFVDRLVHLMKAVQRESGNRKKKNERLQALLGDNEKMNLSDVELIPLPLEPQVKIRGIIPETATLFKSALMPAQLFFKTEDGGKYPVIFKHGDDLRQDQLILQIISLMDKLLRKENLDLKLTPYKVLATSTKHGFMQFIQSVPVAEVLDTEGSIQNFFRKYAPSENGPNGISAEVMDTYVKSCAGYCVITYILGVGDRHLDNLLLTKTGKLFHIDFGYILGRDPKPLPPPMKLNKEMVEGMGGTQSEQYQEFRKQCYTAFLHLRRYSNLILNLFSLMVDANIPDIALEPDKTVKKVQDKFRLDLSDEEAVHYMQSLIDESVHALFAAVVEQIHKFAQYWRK
As usually defined, the IC50 is the concentration that gives 50% inhibition. High values mean a need for much substance, low ones inhibition by little substance. Compound `CC(=O)Nc1cc(-c2cnc(N)c(S(=O)(=O)NCc3cccnc3)c2)ccn1` [Compound I-19, N-{6-amino-5-[(pyridin-3-ylmethyl)sulfamoyl]-3,4′-bipyridin-2′-yl}acetamide] showed an IC50 of 0.05 to 0.1 µM.

Staying with this assay, now noted: compound concentration 1.11 μM; read-out: Percent Inhibition.
One may read the inhibition as how much of the control response was suppressed. Regarding `CC(=O)Nc1cc(-c2cnc(N)c(C(=O)NCC3CC3)c2)ccn1` [Compound I-14, 2′-acetamido-6-amino-N-(cyclopropylmethyl)-3,4′-bipyridine-5-carboxamide], the inhibition at 1.11 µM was > 99%.

For `CC(=O)Nc1cc(-c2cnc(N)c(C(=O)N3CCCC3)c2)ccn1` [Compound I-15, N-[6-amino-5-(pyrrolidin-1-ylcarbonyl)-3,4′-bipyridin-2′-yl]acetamide], the inhibition at 1.11 µM is > 99%.

`CC(=O)Nc1cc(-c2cnc3cc[nH]c3c2)ccn1` [Compound I-17, N-[4-(1H-pyrrolo[3,2-b]pyridin-6-yl)pyridin-2-yl]acetamide]: the inhibition at 1.11 µM was > 99%.

For the compound `CC(=O)Nc1cc(-c2cnc(C)c(NS(=O)(=O)c3cn(C)nc3C(F)(F)F)c2)ccn1` [Compound I-18, N-[6-methyl-5-({[1-methyl-3-(trifluoromethyl)-1H-pyrazol-4-yl]sulfonyl}amino)-3,4′-bipyridin-2′-yl]acetamide], the inhibition at 1.11 µM was > 99%.

On to `CC(=O)Nc1cc(-c2cnc(N)c(S(=O)(=O)NCc3cccnc3)c2)ccn1` [Compound I-19, N-{6-amino-5-[(pyridin-3-ylmethyl)sulfamoyl]-3,4′-bipyridin-2′-yl}acetamide], for which the inhibition at 1.11 µM was > 99%.

As to `CC(=O)Nc1cc(-c2cncc(N(C)S(C)(=O)=O)c2)ccn1` [Compound I-20, N-{5-[methyl(methylsulfonyl)amino]-3,4′-bipyridin-2′-yl}acetamide], the inhibition at 1.11 µM is > 99%.

Consider `CC(=O)Nc1cc(-c2cnc3c(c2)S(=O)(=O)N(C)CN3)ccn1` [Compound I-21, N-[4-(2-methyl-1,1-dioxido-3,4-dihydro-2H-pyrido[2,3-e][1,2,4]thiadiazin-7-yl)pyridin-2-yl]acetamide], for which the inhibition at 1.11 µM was > 99%.

For `CNc1ncc(-c2ccnc(NC(C)=O)c2)cc1C(=O)N(C)C` [Compound I-22, 2′-acetamido-N,N-dimethyl-6-(methylamino)-3,4′-bipyridine-5-carboxamide], the inhibition at 1.11 µM was > 99%.

For the compound `CC(=O)Nc1cc(-c2cnc3ccn(S(=O)(=O)c4ccccc4)c3c2)ccn1` [Compound I-23, N-{4-[1-(phenylsulfonyl)-1H-pyrrolo[3,2-b]pyridin-6-yl]pyridin-2-yl}acetamide], the inhibition at 1.11 µM is > 99%.

For `CC(=O)Nc1cc(-c2cnc(N)c(S(=O)(=O)N3CCOCC3)c2)ccn1` [Compound I-24, N-[6-amino-5-(morpholin-4-ylsulfonyl)-3,4′-bipyridin-2′-yl]acetamide], the inhibition at 1.11 µM was > 99%.

In the case of `CC(=O)Nc1cc(-c2cnc(N(C)C)c(NS(=O)(=O)c3ccc(F)cc3F)c2)ccn1` [Compound I-25, N-[5-{[(2,4-diflurophenyl)sulfonyl]amino}-6-(dimethylamino)-3,4′-bipyridin-2′-yl]acetamide], the inhibition at 1.11 µM was > 99%.

On to `CCN(c1cc(-c2ccnc(NC(C)=O)c2)cnc1C)S(=O)(=O)C1CC1` [Compound I-26, N-{5-[(cyclopropylsulfonyl)(ethyl)amino]-6-methyl-3,4′-bipyridin-2′-yl}acetamide], for which the inhibition at 1.11 µM was > 99%.

Consider `CCN(CC)C(=O)c1cc(-c2ccnc(NC(C)=O)c2)cnc1N` [Compound I-27, 2′-acetamido-6-amino-N,N-diethyl-3,4′-bipyridine-5-carboxamide], for which the inhibition at 1.11 µM was > 99%.

As to `CC(=O)Nc1cc(-c2cnc(C)c(NS(=O)(=O)c3cc(C)ccc3F)c2)ccn1` [Compound I-28, N-(5-{[(2-fluoro-5-methylphenyl)sulfonyl]amino}-6-methyl-3,4′-bipyridin-2′-yl)acetamide], the inhibition at 1.11 µM was > 99%.

In the case of `CC(=O)Nc1cc(-c2cnc3c(c2)N(CC2CC2)S(=O)(=O)N3)ccn1` [Compound I-29, N-{4-[1-(cyclopropylmethyl)-2,2-dioxido-1,3-dihydro[1,2,5]thiadiazolo[3,4-b]pyridin-6-yl]pyridin-2-yl}acetamide], the inhibition at 1.11 µM was > 99%.

As to `CC(=O)Nc1cc(-c2cnc(C)c(NS(=O)(=O)c3ccc(Cl)cc3Cl)c2)ccn1` [Compound I-30, N-(5-{[(2,4-dichlorophenyl)sulfonyl]amino}-6-methyl-3,4′-bipyridin-2′-yl)acetamide], the inhibition at 1.11 µM was > 99%.

As for `CC(=O)Nc1cc(-c2cnc(C)c(NS(=O)(=O)N(C)C)c2)ccn1` [Compound I-32, N-{5-[(dimethylsulfamoyl)amino]-6-methyl-3,4′-bipyridin-2′-yl}acetamide], the inhibition at 1.11 µM is > 99%.

As for `CC(=O)Nc1cc(-c2cnc3ccn(S(C)(=O)=O)c3c2)ccn1` [Compound I-33, N-{4-[1-(methylsulfonyl)-1H-pyrrolo[3,2-b]pyridin-6-yl]pyridin-2-yl}acetamide], the inhibition at 1.11 µM is > 99%.

In the case of `COC(=O)Nc1cc(-c2cnc(N)c(S(=O)(=O)C(C)C)c2)ccn1` [Compound I-34, methyl[6-amino-5-(isopropylsulfonyl)-3,4′-bipyridin-2′-yl]carbamate], the inhibition at 1.11 µM is > 99%.

Regarding `CC(=O)Nc1cc(-c2cnc(N)c(NCC3CC3)c2)ccn1` [Compound I-35, N-{6-amino-5-[(cyclopropylmethyl)amino]-3,4′-bipyridin-2′-yl}acetamide], the inhibition at 1.11 µM was > 99%.

Consider `COC(=O)Nc1cc(-c2cnc(N)c(S(=O)(=O)N3CCCC3)c2)ccn1` [Compound I-36, methyl[6-amino-5-(pyrrolidin-1-ylsulfonyl)-3,4′-bipyridin-2′-yl]carbamate], for which the inhibition at 1.11 µM is > 99%.

Turning to `CC(=O)Nc1cc(-c2cnc(N)c(S(=O)(=O)N(C)c3ccccc3)c2)ccn1` [Compound I-37, N-{6-amino-5-[methyl(phenyl)sulfamoyl]-3,4′-bipyridin-2′-yl}acetamide], the inhibition at 1.11 µM was > 99%.

Consider `COC(=O)Nc1cc(-c2cnc3[nH]ncc3c2)ccn1` [Compound I-38, Methyl [4-(1H-pyrazolo[3,4-b]pyridin-5-yl)pyridin-2-yl]carbamate], for which the inhibition at 1.11 µM was > 99%.

Consider `COc1ncc(-c2ccnc(NC(C)=O)c2)cc1S(=O)(=O)Nc1ccccc1` [Compound I-39, N-[6-methoxy-5-(phenylsulfamoyl)-3,4′-bipyridin-2′-yl]acetamide], for which the inhibition at 1.11 µM was > 99%.

With `CC(=O)Nc1cc(-c2cnc3[nH]cc(S(=O)(=O)N(C)C)c3c2)ccn1` [Compound I-40, N-{4-[3-(dimethylsulfamoyl)-1H-pyrrolo[2,3-b]pyridin-5-yl]pyridin-2-yl}acetamide], the inhibition at 1.11 µM is > 99%.

In the case of `CC(=O)Nc1cc(-c2cnc(C)c(NS(=O)(=O)c3ccc(F)cc3F)c2)ccn1` [Compound I-41, N-(5-{[(2,4-difluorophenyl)sulfonyl]amino}-6-methyl-3,4′-bipyridin-2′-yl)acetamide], the inhibition at 1.11 µM is > 99%.

Take `COC(=O)Nc1cc(-c2cnc3ccn(CC4CC4)c3c2)ccn1` [Compound I-42, Methyl {4-[1-(cyclopropylmethyl)-1H-pyrrolo[3,2-b]pyridin-6-yl]pyridin-2-yl}carbamate]: the inhibition at 1.11 µM is > 99%.

Turning to `CC(=O)Nc1cc(-c2cnc(N)c(S(=O)(=O)Nc3ccccc3)c2)ccn1` [Compound I-43, N-[6-amino-5-(phenylsulfamoyl)-3,4′-bipyridin-2′-yl]acetamide], the inhibition at 1.11 µM was > 99%.

On to `CCc1ccc(S(=O)(=O)Nc2cc(-c3ccnc(NC(C)=O)c3)cnc2C)cc1` [Compound I-44, N-(5-{[(4-ethylphenyl)sulfonyl]amino}-6-methyl-3,4′-bipyridin-2′-yl)acetamide], for which the inhibition at 1.11 µM was > 99%.

In the case of `CC(=O)Nc1cc(-c2cnc(C)c(NS(=O)(=O)c3cccnc3)c2)ccn1` [Compound I-45, N-{6-methyl-5-[(pyridin-3-ylsulfonyl)amino]-3,4′-bipyridin-2′-yl}acetamide], the inhibition at 1.11 µM was > 99%.

In the case of `CC(=O)Nc1cc(-c2cnc(C)c(N(C)S(=O)(=O)c3ccccc3)c2)ccn1` [Compound I-46, N-{6-methyl-5-[methyl(phenylsulfonyl)amino]-3,4′-bipyridin-2′-yl}acetamide], the inhibition at 1.11 µM is > 99%.

Turning to `CC(=O)Nc1cc(-c2cncc(S(=O)(=O)N3CCCC3)c2)ccn1` [Compound I-47, N-[5-(pyrrolidin-1-ylsulfonyl)-3,4′-bipyridin-2′-yl]acetamide], the inhibition at 1.11 µM was > 99%.

Take `CC(=O)Nc1cc(-c2cncc(C(=O)N(C)C)c2)ccn1` [Compound I-48, 2′-acetamido-N,N-dimethyl-3,4′-bipyridine-5-carboxamide]: the inhibition at 1.11 µM is > 99%.

As for `CC(=O)Nc1cc(-c2cnc(N)c(S(=O)(=O)NCC3CC3)c2C)ccn1` [Compound I-49, N-{6-amino-5-[(cyclopropylmethyl)sulfamoyl]-4-methyl-3,4′-bipyridin-2′-yl}acetamide], the inhibition at 1.11 µM was > 99%.

Regarding `CC(=O)Nc1cc(-c2cnc(N)c(S(=O)(=O)Cc3ccccc3C(F)(F)F)c2)ccn1` [Compound I-50, N-(6-amino-5-{[2-(trifluoromethyl)benzyl]sulfonyl}-3,4′-bipyridin-2′-yl)acetamide], the inhibition at 1.11 µM was > 99%.

As to `CC(=O)Nc1cc(-c2cncc(S(C)(=O)=O)c2)ccn1` [Compound I-51, N-[5-(methylsulfonyl)-3,4′-bipyridin-2′-yl]acetamide], the inhibition at 1.11 µM is 91%.

Take `CC(=O)Nc1cc(-c2cnc(C)c(NS(=O)(=O)c3cc(F)ccc3F)c2)ccn1` [Compound I-52]: the inhibition at 1.11 µM was > 99%.

Turning to `CC(=O)Nc1cc(-c2cnc(NCC3CC3)c(N)c2)ccn1` [Compound I-53, N-{5-amino-6-[(cyclopropylmethyl)amino]-3,4′-bipyridin-2′-yl}acetamide], the inhibition at 1.11 µM was found to be 67%.

Take `CC(=O)Nc1cc(-c2cnc3[nH]cc(CN4CCCC4)c3c2)ccn1` [Compound I-54, N-{4-[3-(pyrrolidin-1-ylmethyl)-1H-pyrrolo[2,3-b]pyridin-5-yl]pyridin-2-yl}acetamide]: the inhibition at 1.11 µM was 83%.

As for `COC(=O)Nc1cc(-c2cnc(N)c(C(=O)N(C)C)c2)ccn1` [Compound I-55, methyl [6-amino-5-(dimethylcarbamoyl)-3,4′-bipyridin-2′-yl]carbamate], the inhibition at 1.11 µM was > 99%.

(Values after US9802960B2 (MILLENNIUM PHARMACEUTICALS, INC., priority 2014, dated 2017).)
